Here are results for 18 compounds from patent US11976083B2, “Inhibitors of peptidylarginine deiminases” (Gilead Sciences, Inc., priority 2020, dated 2024).

The assay has as its target T1, human PAD4 (Homo sapiens, UniProt Q9UM07).
T1 construct: human PAD4 (NM_012387), A2-P663, was PCR amplified; His-SUMO (N, cleaved yes); made in house; host or cells: E. coli BL21(DE3)
As to the kind of experiment: In vitro PAD4 BAEE biochemical assay. The following applies: BAEE substrate 3 mM, 5 nM PAD4, 2 mM calcium chloride; geometric mean of multiple experiments. The procedure, abridged: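 PAD4 5 nM, CaCl2 2 mM, BAEE 3 mM final; 50 mM MOPS pH 7.6, 50 mM NaCl, 0.05% Tween-20, 2 mM DTT. Cpd + enzyme 30 min 25 °C; substrate 2 h 25 °C; EDTA stop; OPA detection 1 h. IC50 4-parameter fit.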

T1 sequence (Q9UM07 2-663): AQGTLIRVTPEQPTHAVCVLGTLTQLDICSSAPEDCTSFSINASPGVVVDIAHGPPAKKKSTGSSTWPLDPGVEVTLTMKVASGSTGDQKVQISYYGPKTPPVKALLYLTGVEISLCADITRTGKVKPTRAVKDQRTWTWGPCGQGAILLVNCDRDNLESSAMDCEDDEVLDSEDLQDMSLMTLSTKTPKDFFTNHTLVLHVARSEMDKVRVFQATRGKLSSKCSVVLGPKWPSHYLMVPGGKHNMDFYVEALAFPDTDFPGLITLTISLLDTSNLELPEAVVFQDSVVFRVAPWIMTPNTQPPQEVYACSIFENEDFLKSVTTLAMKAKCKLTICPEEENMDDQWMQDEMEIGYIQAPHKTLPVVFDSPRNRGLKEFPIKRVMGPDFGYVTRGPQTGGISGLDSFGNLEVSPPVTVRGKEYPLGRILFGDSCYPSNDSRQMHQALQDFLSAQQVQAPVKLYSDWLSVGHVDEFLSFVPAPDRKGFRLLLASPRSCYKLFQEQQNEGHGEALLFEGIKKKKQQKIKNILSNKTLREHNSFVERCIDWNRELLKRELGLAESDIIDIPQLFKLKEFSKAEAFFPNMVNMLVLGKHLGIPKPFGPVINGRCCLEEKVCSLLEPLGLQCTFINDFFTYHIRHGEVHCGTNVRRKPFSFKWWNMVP

For orientation: IC50 means the midpoint of a concentration-inhibition curve. In the case of `COc1cc(C(=O)N[C@H]2CNCC[C@@H]2F)cc2nc(-c3cc4ccc5nc4n3CC(F)(F)CCCc3ccccc3C(=O)N[C@@H]5C)n(C)c12` [Example 186, 2-[(2~{R})-14,14-difluoro-2-methyl-4-oxo-3,16,22-triazatetracyclo[14.5.2.0^{5,10}.0^{19,23}]tricosa-1(22),5(10),6,8,17,19(23),20-heptaen-17-yl]-~{N}-[(3~{S},4~{S})-4-fluoro-3-piperidyl]-7-methoxy-1-methyl-benzimidazole-5-carboxamide], the IC50 was 139 nM.

For the compound `COc1cc(C(=O)N2CCC[C@@H](N)C2)cc2nc(-c3cc4ccc5nc4n3CCCCCc3cnn(C)c3C(=O)N[C@@H]5C)n(C)c12` [Example 172, (2~{R})-16-[5-[(3~{R})-3-aminopiperidine-1-carbonyl]-7-methoxy-1-methyl-benzimidazol-2-yl]-2,6-dimethyl-3,6,7,15,21-pentazatetracyclo[13.5.2.0^{5,9}.0^{18,22}] docosa-1(21),5(9),7,16,18(22),19-hexaen-4-one], the IC50 amounted to 101 nM.

As to `C[C@H]1NC(=O)[C@@H]2C[C@H]2CCCC(F)(F)Cn2c(-c3nc4cc(C(=O)N5C[C@H](N)[C@@H]6CC[C@H]5C6)cc(Cl)c4n3C3CC3)cc3ccc1nc32` [Example 471, (2~{R},5~{R},7~{R})-14-[5-[(1~{S),4~{R},5~{R})-4-amino-2-azabicyclo[3.2.1]octane-2-carbonyl]-7-chloro-1-cyclopropyl-benzimidazol-2-yl]-11,11-difluoro-2-methyl-3,13,19-triazatetracyclo[11.5.2.0^{5,7}.0^{16,20}] icosa-1(18),14,16,19-tetraen-4-one], the concentration for half-maximal inhibition (IC50) was determined as 44 nM.

With `Cc1cc2c(cc1C(=O)N[C@H]1CNCC[C@@H]1F)nc(-c1cc3ccc4nc3n1CC(F)(F)CCC[C@@H]1C[C@H]1C(=O)N[C@@H]4C)n2C` [Example 551, 2-[(2~{R},5~{R},7~ {R})-11,11-difluoro-2-methyl-4-oxo-3,13,19-triazatetracyclo[11.5.2.0^ {5,7).0^{16,20}]icosa-1(19),14,16(20),17-tetraen-14-yl]-~{N}-[(3~ {S},4~{S})-4-fluoro-3-piperidyl]-1,6-dimethyl-benzimidazole-5-carboxamide], the IC50 is 43 nM.

Take `C[C@H]1NC(=O)C(C)(C)CCCCCCn2c(-c3nc4cc(C(=O)N[C@H]5CNCC[C@@H]5F)c(F)cc4n3C)cc3ccc1nc32` [Example 591, 6-fluoro-~{N}-[(3~{S},4~ {S})-4-fluoro-3-piperidyl]-1-methyl-2-[(11~ {R})-8,8,11-trimethyl-9-oxo-1,10,19-triazatricyclo [10.5.2.0^{15,18}]nonadeca-12,14,16,18-tetraen-17-yl]benzimidazole-5-carboxamide]: the IC50 worked out at 81 nM.

`C[C@@H]1[C@H](N)CCCN1C(=O)c1cc(F)c2c(c1)nc(-c1cc3ccc4nc3n1CCCCCc1nc(C(F)(F)F)ccc1C(=O)N[C@@H]4C)n2C1CC1` [Example 838, (2~{R})-17-[5-[(2~{R}, 3~{R})-3-amino-2-methyl-piperidine-1-carbonyl]-1-cyclopropyl-7-fluoro-benzimidazol-2-yl]-2-methyl-8-(trifluoromethyl)-3,9,16,22-tetrazatetracyclo[14.5.2.0^ {5,10).0^{19,23}] tricosa-1(22),5(10), 6,8,17,19(23),20-heptaen-4-one]: the IC50 was found to be 49 nM.

As to `COc1cc(C(=O)N2CC[C@@H](OC(F)F)[C@@H](N)C2)cc2nc(-c3cc4ccc5nc4n3CCCCCc3nc4ccccc4nc3C(=O)N[C@@H]5C)n(C)c12` [Example 824, (2~{R})-21-[5-[(3~{S},4~{R})-3-amino-4-(difluoromethoxy)piperidine-1-carbonyl]-7-methoxy-1-methyl-benzimidazol-2-yl]-2-methyl-3,6,13,20,26-pentazapentacyclo [18.5.2.0^{5,14).0^{7, 12}.0^{23,27}]heptacosa-1(26),5,7(12),8,10,13,21, 23(27),24-nonaen-4-one], the half-maximal inhibitory concentration (IC50) is 43 nM.

As for `COc1cc(C(=O)N2CCC[C@@H](N)C2)cc2nc(-c3cc4ccc5nc4n3CCCCCCNC(=O)c3ncccc3-5)n(C)c12` [Example 46, 17-[5-[(3~{R})-3-aminopiperidine-1-carbonyl]-7-methoxy-1-methyl-benzimidazol-2-yl]-6,9,16,22-tetrazatetracyclo[14.5.2.0^{2,7}.0^{19,23}] tricosa-1(22),2,4,6,17,19(23),20-heptaen-8-one], the IC50 was 277 nM.

Turning to `COc1cc(C(=O)N2CCC[C@@H](N)C2)cc2nc(-c3cc4ccc5nc4n3C[C@H]3C[C@@H]3CCCCC(=O)N[C@@H]5C)n(C)c12` [Example 163, (3~{S},5~{S},12~{R})-18-[5-[(3~{R})-3-aminopiperidine-1-carbonyl]-7-methoxy-1-methyl-benzimidazol-2-yl]-12-methyl-1,11,20-triazatetracyclo[11.5.2.0^{3,5}.0^{16,19}] icosa-13(20),14,16(19),17-tetraen-10-one], the IC50 was 51 nM.

For `COC(C)Cn1c(-c2cc3ccc4nc3n2CCCCC[C@@H]2C[C@H]2C(=O)N[C@@H]4C)nc2cc(C(=O)N[C@H]3CNCC[C@@H]3F)c(F)cc21` (stereo partly drawn) [Example 430, 6-fluoro-~{N}-[(3~{S},4~{S})-4-fluoro-3-piperidyl]-1-(2-methoxypropyl)-2-[(2~{R},5~{R},7~{R})-2-methyl-4-oxo-3,13,19-triazatetracyclo[11.5.2.0^{5,7}.0^{16,20}]icosa-1(19),14,16(20),17-tetraen-14-yl]benzimidazole-5-carboxamide], the IC50 was 44 nM.

`COc1cc(C(=O)N[C@@H]2CC[C@H](C)NC2)cc2nc(-c3cc4ccc5nc4n3CCCCCCC(C)(C)C(=O)N[C@@H]5C)n(C)c12` [Example 73, 7-methoxy-1-methyl-~{N}-[(3~{R},6~{S})-6-methyl-3-piperidyl]-2-[(11~{R})-8,8,11-trimethyl-9-oxo-1,10,19-triazatricyclo[10.5.2.0^{15,18}]nonadeca-12(19),13,15(18),16-tetraen-17-yl]benzimidazole-5-carboxamide]: the IC50 amounted to 125 nM.

For the compound “(2~{R})-17-[5-[(1~{S}, 4~{R},5~{R})-4-amino-2- azabicyclo[3.2.1]octane-2- carbonyl]-1-cyclopropyl- 7-fluoro-benzimidazol-2-yl]- 6-(difluoromethyl)-2- methyl-3,7,16,22- tetrazatetracyclo[14.5.2.0^ {5,10}.0^{19,23}]tricosa- 1(22),5(10),6,8,17,19(23),20- heptaen-4-one [Example 718]”, the IC50 came to 18 nM.

`COc1cc(C(=O)N2CCC[C@@H](N)C2)cc2nc(-c3cc4ccc5nc4n3C[C@@H]3C[C@@H]3COCCC(=O)N[C@@H]5C)n(C)c12` [Example 305, (3~{R},5~{S},12~{R})-18-[5-[(3~{R})-3-aminopiperidine-1-carbonyl]-7-methoxy-1-methyl-benzimidazol-2-yl]-12-methyl-7-oxa-1,11,20-triazatetracyclo[11.5.2.0^{3,5).0^{16,19}] icosa-13(20),14,16(19),17-tetraen-10-one]: the IC50 came out at 65 nM.

In the case of `COc1cc(C(=O)N2CCC[C@@H](N)C2)cc2nc(-c3cc4ccc5cc4n3CCCCCCNC(=O)c3ccccc3-5)n(C)c12` [Example 51, 17-[5-[(3~{R})-3-aminopiperidine-1-carbonyl]-7-methoxy-1-methyl-benzimidazol-2-yl]-9,16-diazatetracyclo[14.5.2.0^{2,7}.0^{19,23}] tricosa-1(22),2,4,6,17,19(23),20-heptaen-8-one], the IC50 was 215 nM.

As for `COc1cc(C(=O)N2[C@H]3CC[C@@H]2[C@H](N)C3)cc2nc(-c3cc4ccc5nc4n3CCCCCC[C@@H](C)C(=O)N[C@@H]5C)c(C)n12` [Example 122, (8~{R},11~{R})-17-[7-[(1~{R},2~{R},4~{S})-2-amino-7-azabicyclo[2.2.1]heptane-7-carbonyl]-5-methoxy-3-methyl-imidazo[1,2-a]pyridin-2-yl]-8,11-dimethyl-1,10,19-triazatricyclo[10.5.2.0^{15,18}]nonadeca-12(19),13,15(18),16-tetraen-9-one], the IC50 is 16 nM.

With `COc1cc(C(=O)N2CC[C@@H](OC(F)F)[C@@H](N)C2)cc2nc(-c3cc4ccc5nc4n3CCCCCc3ccccc3C(=O)N[C@@H]5C)n(C)c12` [Example 491, (2~{R})-17-[5-[(3~ {S},4~{R})-3-amino-4-(difluoromethoxy)piperidine-1-carbonyl]-7-methoxy-1-methyl-benzimidazol-2-yl]-2-methyl-3,16,22-triazatetracyclo [14.5.2.0^{5,10}.0^{19,23}] tricosa-1(22),5(10), 6,8,17,19(23),20-heptaen-4-one], the IC50 was found to be 253 nM.

As for `COc1cc(C(=O)N2C[C@H](N)[C@@H]3CC[C@H]2C3)cc2nc(-c3cc4ccc5nc4n3CCCCCC[C@](F)(c3ccccn3)C(=O)N[C@@H]5C)n(C)c12` [Example 883, (8~{S},11~{R})-17-[5-[(1~{S},4~{R},5~{R})-4-amino-2-azabicyclo[3.2.1]octane-2-carbonyl]-7-methoxy-1-methyl-benzimidazol-2-yl]-8-fluoro-11-methyl-8-(2-pyridyl)-1,10,19-triazatricyclo[10.5.2.0^ {15,18}]nonadeca-12(19), 13,15(18),16-tetraen-9-one], the IC50 is 18 nM.

For `C[C@H]1NC(=O)[C@@H]2C[C@@H]2CCCCCn2c(-c3nc4cc(C(=O)N[C@H]5CNCC[C@@H]5F)c(F)cc4n3C3CC3)cc3ccc1nc32` [Example 520, 1-cyclopropyl-6-fluoro-~ {N}-[(3~{S},4~{S})-4-fluoro-3-piperidyl]-2-[(2~{R},5~{R},7~{S})-2-methyl-4-oxo-3,13,19-triazatetracyclo[11.5.2.0^ {5,7}.0^{16,20}]icosa-1(19),14,16(20),17-tetraen-14-yl]benzimidazole-5-carboxamide], the 50% inhibitory concentration (IC50) came out at 35 nM.
